Data on six compounds can be found in PMC12695667 (Nature, 2025).

Series [1] has as its system C57BL/6J mouse dorsal skin. Format: in vivo, C57BL/6J mice. The source says:
The dorsal skin of male C57BL/6J mice was exposed using depilatory cream and cleaned using PBS. A diffusing cell of 1.13 cm^2 was attached onto the dorsal skin. […] After timed topical administration, the mice were euthanized. The treated skin sites were washed and dissected. The entire skin samples were carefully washed three times with PBS, fixed with 4% paraformaldehyde (PFA) solution and sectioned into 10-μm-thick slices using a cryostat (UV800, Leica Microsystems). 4′,6-Diamidino-2′-phenylindole (DAPI) was used to stain and label the nuclei of skin tissues, and BODIPY was used to stain and localize subcutaneous fat deposits. […] The CLSM images were analysed using ImageJ.

For series [2], the target named is insulin receptor extracellular domains, His-tagged. Nature of the series: SPR; Biacore X100, CM5 chip; anti-His antibody immobilised, His-tag-ECD-IR captured on it; insulin (9.75-156 nM) or OP-I (4.06-65.0 nM) injected in HEPES running buffer pH 7.4, single-cycle kinetics, 180 s binding and 300 s dissociation, flow 30 ul/min. On the technique in general: Surface plasmon resonance follows binding to a sensor surface in real time, without labels.

For series [3], the system named is STZ-induced type 1 diabetic mice. Kind of series: Blood glucose levels in STZ-induced diabetic mice. The format is in vivo, C57BL/6J mice. The note with it: for Effect on BGLs, topical: topical 116 U kg^−1, 1.13 cm^2 dorsal skin. On the procedure:
Type 1 diabetic mice were established through intraperitoneal delivery of STZ (150 mg per kg in 10 mg ml^−1 disodium citrate buffer, pH 4.5) into healthy male C57BL/6J mice (aged 6–8 weeks, ~25 g). BGLs were monitored, and the mice with BGLs exceeding 300 mg dl^−1 were considered diabetic. Diabetic mice with fasting BGLs within the 300 to 600 mg dl^−1 range were selected for the experiments. BGLs were measured from tail-vein blood (around 3 μl) using a calibrated Sinocare glucose meter.
BGLs were measured at timed intervals. […] The diabetic mice were subjected to a fasting period of 12 h during the experimental procedures.

In series [4] the test system is STZ-induced diabetic mice. Nature of the series: Intraperitoneal glucose tolerance test (IPGTT) in diabetic mice. The format is in vivo, C57BL/6J mice. The arrangement: Area under the IPGTT blood glucose curve: unit not given here. The note with it: for Area under the IPGTT blood glucose curve: Fig. 3h, 0-120 min; for BGL after intraperitoneal glucose administration (IPGTT): diabetic mice, topical 116 U kg^−1, glucose 1.5 g per kg i.p., hyperglycaemic state maintained. On the procedure:
BGLs were monitored over time. The diabetic mice were subjected to a fasting period of 3 h during the experimental procedures.

Series [5] concerns STZ-induced diabetic minipigs. Nature of the series: Blood glucose levels in STZ-induced diabetic minipigs (CGMS). Format: in vivo, Guangxi Bama minipigs. Conditions: cream, 29 U kg^−1. Here is the method:
Guangxi Bama minipigs (aged 6 months; weight, 35–40 kg) were infused with STZ in freshly prepared disodium citrate buffer (75 mg ml^−1, pH 4.5) at a 150 mg per kg dose within 10 min and then maintained for recovery. The glucose levels were monitored using CGMS[15] (Dexcom G4 Platinum Continuous Glucose Monitor System, Dexcom). A BGL that is constantly higher than 250 mg dl^−1 indicates the successful establishment of the insulin-deficient diabetic minipig model.
The cream was topically applied onto the minipig abdominal skin at an insulin-equivalent dose of 40 mg or 10 mg (n = 3 for each group). The area with the cream was wrapped with plastic film. The BGLs of minipigs were continuously monitored using the CGMS. The diabetic minipigs were subjected to a fasting period of 12 h during the experimental procedures.

In series [6] the test system is HaCat spheroids. Nature of the series: Penetration in 3D-cultured multilayer HaCat spheroids (with or without endocytosis/exocytosis inhibitors). Format: cell-based, human. Conditions: FITC-eq 1 μg ml^−1, 12 h. On the procedure: Multilayer cell spheroids were prepared using the hanging-drop method. […] The cell suspensions (25 μl) were dropped onto the lids of the cell culture plate to form uniform droplets, and 20 ml PBS was added to the plate to keep the droplets moist. The cells were incubated for 72 h and formed dense spheroids, which were transferred to an agarose-coated (1% (w/v) in PBS) 96-well plate with one spheroid per well and incubated for another 72 h to mature. […] The spheroids were washed with PBS and imaged using CLSM by z-stack tomoscan at 20 μm intervals from the bottom to the middle of the spheroids. The integration of FITC fluorescence density and linescan analysis were performed using Image J.
The HaCat spheroids were imaged and analysed as described above.
Spheroids were pre-treated with the indicated inhibitors for 4 h, followed by incubation with
The images are representative of n = 3 independent
experiments. b, Line-scan analysis of FITC fluorescence along a randomly selected line (yellow
(1 picture or pasted object on this page, not shown here)

For series [7], the system named is phosphorylated IRβ/IGF1Rβ. Nature of the series: Western blotting for insulin signalling, pIR/IR in skeletal muscle. The format is in vivo, mouse. Conditions: STZ-diabetic mice, 1 h after s.c. 5 U/kg, western blot, individual mice, n = 3. On the procedure:
(§1) The mice were euthanized, and their skeletal muscle tissues were collected at 1 h after subcutaneous injection or 4 h after topical administration. Muscle samples were weighed and lysed in radioimmunoprecipitation buffer (Sigma-Aldrich) containing protease and phosphatase inhibitors (Thermo Fisher Scientific) and incubated on ice for 30 min. The lysates were centrifuged at 20,000g for 20 min at 4 °C and quantified using the BCA protein assay. […] The membranes were blocked in Tris-buffered saline with 0.5% Tween-20 (TBST) and 5% BSA for 1 h, followed by overnight incubation at 4 °C with primary antibodies against phosphorylated IRβ/IGF1Rβ (1:1,000), phosphorylated AKT-Thr308 (1:1,000) or GAPDH (1:5,000). After washing three times with TBST, the membranes were incubated with horseradish-peroxidase-conjugated secondary antibodies (HRP-labelled goat anti-rabbit IgG (H+L) or HRP-labelled Goat Anti-Mouse IgG (H+L)) at a dilution of 1:1,000 at room temperature for 1 h. Signal detection was performed using Immobilon Forte chemiluminescence substrate on the ChemiScope 3600 Mini Imaging System (Clinx Science Instruments). […]
(§2) control. The blots are representative of n = 3 independent experiments . b, Quantification of pIR and pAKT levels. […]

The test system of series [8] is phosphorylated AKT-Thr308. Nature of the series: Western blotting for insulin signalling, pAKT/AKT in skeletal muscle. The format is in vivo, mouse. The note with it: STZ-diabetic mice, 1 h after s.c. 5 U/kg, individual mice, n = 3. Here is the method: as §1, §2
(Immunoblotting shows a protein as a band on a membrane.)

By koff is commonly meant a measure of how fast the partners let go of each other. As a reminder, the kon is the rate constant with which the complex forms.

“And” between values parts separate entries of the source, which are not always exact repeats. Identical values can stand only once.

For the compound `CCN1/C(=C/C=C/C=C/C2=[N+](CCCCCC(=O)O)c3ccc(S(=O)(=O)O)cc3C2(C)C)C(C)(C)c2cc(S(=O)(=O)[O-])ccc21` [free Cy5], the “Transdermal permeability of free label” value in series [1] is listed as “no detectable transdermal permeability”.
In series [2], “OP-conjugated insulin (insulin conjugated to poly[2-(N-oxide-N,N-dimethylamino)ethyl methacrylate])” had a koff of 0.0053 s⁻¹ and a kon of 204000 M⁻¹ s⁻¹.
With “PEG–I: PEGylated insulin, PEG molecular mass of 5 kDa, used as a control”, the “Effect on BGLs, topical” value in series [3] is reported as “negligible effect on BGLs”. Besides, the “Area under the IPGTT blood glucose curve” value in series [4] (replicate 1) is given as 63110; in series [4] (replicate 2) it was 52617; in series [4] (replicate 3) it was 56133; in series [4] (replicate 4), 51381; in series [4] (replicate 5) it was 44798. In series [4], the “BGL after intraperitoneal glucose administration (IPGTT)” value is on record as “around 600 mg dl^−1”. In series [5], the “Effect of topical treatment on minipig BGLs” value was “almost no obvious changes in minipig BGLs”.
Consider PEG–I^FITC: FITC-labelled PEG–I, for which, in series [6], the “Fluorescence of HaCat spheroids (CLSM)” value is listed as “only weak fluorescence”.
Turning to “insulin: Human recombinant insulin (29 U mg^−1, I8830, Solarbio) [reference compound]”, in series [7], the PIR/IR was 0.1659 and 0.2361 and 0.221. Besides, the pAKT/AKT in series [8] was 0.4051 and 0.6287 and 0.4302. Also, the “BGL after rebound within 4 h” value in series [3] (s.c. 5 U kg^−1) is reported as “around 400 mg dl^−1”. Also, in series [3] (s.c. 5 U kg^−1, from around 400), the “BGL reached within 1 h” value is around 100 mg/dL. Further, the “Effect on BGLs, topical” value in series [3] is reported as “negligible effect on BGLs”. Also, the “Area under the IPGTT blood glucose curve” value in series [4] (replicate 1) was 55359; in series [4] (replicate 2), 62309; in series [4] (replicate 3), 59228; in series [4] (replicate 4), 59472; in series [4] (replicate 5), 58535. Moreover, the “BGL after intraperitoneal glucose administration (IPGTT)” value in series [4] was “around 600 mg dl^−1”. Further, the “Effect of topical treatment on minipig BGLs” value in series [5] is “almost no obvious changes in minipig BGLs”.
For the compound insulin^FITC: FITC-labelled insulin, in series [6], the “Fluorescence of HaCat spheroids (CLSM)” value is recorded as “only weak fluorescence”.
